Source: ChEMBL document CHEMBL1158212, “Squamotacin: an annonaceous acetogenin with cytotoxic selectivity for the human prostate tumor cell line (PC-3)” (J Nat Prod, 1996)
≈ marks a conversion by molar mass, not a printed value.

Tests used:
[1] = tested on: MIA PaCa-2; test: Cytotoxicity against human MIAPaCa2 cells; type: functional; conditions: for EC50: Homo sapiens, MIA PaCa-2, read-out: ED50 (the source's name)
[2] = tested on: HT-29; test: Cytotoxicity against human HT29 cells; type: functional; conditions: read-out: ED50 (the source's name)
[3] = (§1) Toxicity in Artemia salina; type: organism-based; conditions: in vivo
[4] = tested on: A498; test: Cytotoxicity against human A498 cells; type: functional; conditions: for EC50: Homo sapiens, A498, read-out: ED50 (the source's name)
[5] = tested on: A549; test: Cytotoxicity against human A549 cells; type: functional; conditions: for EC50: Homo sapiens, A549, read-out: ED50 (the source's name)
[6] = tested on: MCF7; test: Cytotoxicity against human MCF7 cells; type: functional; conditions: read-out: ED50 (the source's name)
[7] = Cytotoxicity against human PC3 cells; type: cell-based, PC-3; conditions: read-out: ED50 (the source's name)
[8] = tested on: Artemia salina; test: as §1; type: organism-based; conditions: in vivo

SMILES | EC50 [1] [ng/mL] | EC50 [2] [ng/mL] | LC50 [3] [ng/mL] | EC50 [4] [ng/mL] | EC50 [5] [ng/mL] | EC50 [6] [ng/mL] | CC50 [7] [ng/mL] | ED50 [4] [×10⁻⁵ ug/ml] | ED50 [5] [×10⁻⁶ ug/ml] | LC50 [8] [×10⁻² ug/ml] | ED50 [1] [×10⁻⁴ ug/ml]
COc1cccc2c1C(=O)c1c(O)c3c(c(O)c1C2=O)C[C@@](O)(C(=O)CO)C[C@@H]3O[C@H]1C[C@H](N)[C@H](O)[C@H](C)O1 [DOXORUBICIN] | 3.17 (≈ 5.83 nM) | 41.6 (≈ 76.5 nM) | 257 (≈ 473 nM) | 24.9 (≈ 45.8 nM) | 28.4 (≈ 52.3 nM) | 347 (≈ 638 nM) | 342 (≈ 629 nM) |  |  |  | 
CCCCCCCCCC[C@@H](O)[C@@H]1CC[C@@H]([C@@H]2CC[C@@H]([C@H](O)CCCCCCCCCC(O)CC3=CC(C)OC3=O)O2)O1 (stereo not given in full) [BULLATACIN] |  | > 1000 |  |  |  | 696 (≈ 1140 nM) |  | 4.85 | 2.44 |  | 
CCCCCCCCCC[C@H](O)[C@H]1CC[C@H]([C@H]2CC[C@H]([C@H](O)CCCCCCCC[C@@H](O)CC3=C[C@H](C)OC3=O)O2)O1 [MOLVIZARIN] | 7.66 (≈ 12.9 nM) | 7.32 (≈ 12.3 nM) |  | 709 (≈ 1190 nM) | 63 (≈ 106 nM) | > 1000 |  |  |  | 5.26 | 
CCCCCCCCCC[C@H](O)[C@H]1CC[C@H]([C@H]2CC[C@H]([C@H](O)CCCCCCCCCC[C@@H](O)CC3=C[C@H](C)OC3=O)O2)O1 [BULLATACIN] |  |  | 1.59 (≈ 2.55 nM) |  |  |  | 1e-06 (≈ 1.61e-06 nM) |  |  |  | 
CCCCCCCCCCCC[C@H](O)[C@H]1CC[C@H]([C@H]2CC[C@H]([C@H](O)CCCCCCCC[C@@H](O)CC3=C[C@H](C)OC3=O)O2)O1 [SQUAMOTACIN] |  | 1 (≈ 1.61 nM) | 6.8 (≈ 10.9 nM) | > 1000 | 27.7 (≈ 44.5 nM) | > 1000 |  |  |  |  | 1.33
